Test results reported in the NIST ThermoML archive (doi:10.1016/j.fluid.2010.01.007).
± gives the expanded uncertainty stated by the source.

Assay: activity coefficient (dimensionless); of the first substance listed, at infinite dilution; xn = mol fraction of the nth substance listed
Details: Liquid, Chromatography, x1 = 0

SMILES	activity coefficient (325.2 K)	activity coefficient (334.8 K)	activity coefficient (344.3 K)	activity coefficient (353.9 K)	activity coefficient (363.4 K)
CC1CO1 (stereo unspecified) [methyloxirane] + CCCCn1cc[n+](C)c1.F[B-](F)(F)F	1.35 ± 0.04	1.33 ± 0.04	1.27 ± 0.03	1.32 ± 0.04	1.41 ± 0.04
CCCCC1CO1 (stereo unspecified) [1,2-epoxyhexane] + CCCCn1cc[n+](C)c1.F[P-](F)(F)(F)(F)F		1.94 ± 0.07	2.19 ± 0.08	2.2 ± 0.08	2.14 ± 0.08
CC1CO1 (stereo unspecified) [methyloxirane] + CCCCn1cc[n+](C)c1.F[P-](F)(F)(F)(F)F		0.838 ± 0.021	0.828 ± 0.021	0.893 ± 0.021	0.872 ± 0.024
CC1(C)CO1 [2,2-dimethyloxirane] + CCCCn1cc[n+](C)c1.F[P-](F)(F)(F)(F)F		1.09 ± 0.03	1.12 ± 0.03	1.21 ± 0.03	1.19 ± 0.04
CC1(C)CO1 [2,2-dimethyloxirane] + CCCCn1cc[n+](C)c1.F[B-](F)(F)F	2.19 ± 0.08	2.13 ± 0.07	2.11 ± 0.07	2.06 ± 0.07	2.18 ± 0.08
CCC1CO1 (stereo unspecified) [ethyloxirane] + CCCCn1cc[n+](C)c1.F[P-](F)(F)(F)(F)F		1.13 ± 0.03	1.13 ± 0.03	1.19 ± 0.03	1.16 ± 0.03
CCC1CO1 (stereo unspecified) [ethyloxirane] + CCCCn1cc[n+](C)c1.F[B-](F)(F)F	2.62 ± 0.09	2.14 ± 0.08	2.08 ± 0.07	2.05 ± 0.07	2.1 ± 0.07
CCCCC1CO1 (stereo unspecified) [1,2-epoxyhexane] + CCCCn1cc[n+](C)c1.F[B-](F)(F)F	5.7 ± 0.2	5.31 ± 0.19	5.3 ± 0.19	5.14 ± 0.18	5.2 ± 0.18
